Data as given in patent US9718828B2 (MERCK SHARP & DOHME CORP., priority 2011, dated 2017).
Where a name gives a salt, the structure may show the parent alone. Read-outs that look alike come from different tables or passages of the source.

Target: Btk enzyme (His-Btk) (Homo sapiens (Human), UniProt Q06187)
Test: Btk enzyme activity, IMAP fluorescence polarization assay (Assay Method A)
[1] = read-out: EC50 Btk activity values - Assay Method A, IMAP-FP, 60 min pre-incubation, 5 μM ATP, class 100-1000 is given as ≧100 nM-<1 μM

Btk enzyme (His-Btk), sequence (Q06187 whole entry): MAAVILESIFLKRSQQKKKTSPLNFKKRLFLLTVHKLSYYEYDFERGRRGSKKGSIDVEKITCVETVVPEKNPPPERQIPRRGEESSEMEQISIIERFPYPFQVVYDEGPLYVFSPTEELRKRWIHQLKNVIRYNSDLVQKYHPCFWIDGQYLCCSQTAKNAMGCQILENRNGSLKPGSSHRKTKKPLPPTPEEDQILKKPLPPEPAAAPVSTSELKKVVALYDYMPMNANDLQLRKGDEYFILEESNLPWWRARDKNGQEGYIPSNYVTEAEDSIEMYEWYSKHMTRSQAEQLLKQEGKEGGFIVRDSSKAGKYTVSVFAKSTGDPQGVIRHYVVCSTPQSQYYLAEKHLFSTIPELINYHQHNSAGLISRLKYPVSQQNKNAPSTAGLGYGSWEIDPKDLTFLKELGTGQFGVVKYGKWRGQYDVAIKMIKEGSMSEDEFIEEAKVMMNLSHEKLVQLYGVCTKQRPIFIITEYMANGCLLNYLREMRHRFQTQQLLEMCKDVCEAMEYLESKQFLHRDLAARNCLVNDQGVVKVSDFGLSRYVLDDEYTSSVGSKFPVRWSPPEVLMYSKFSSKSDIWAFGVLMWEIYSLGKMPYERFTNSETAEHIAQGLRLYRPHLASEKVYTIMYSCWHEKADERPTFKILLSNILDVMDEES

Row | EC50 [1] [nM] | EC50 [nM] | SMILES
1 | < 10 | – | CC1(C(=O)N2CCC[C@@H](c3nc(-c4ccc(C(=O)Nc5cc(C(F)(F)F)ccn5)cc4)c4c(N)ncc(CCc5ccccc5)n34)C2)COC1 [Example 319, (R)-4-(8-amino-3-(1-(3-methyloxetane-3-carbonyl)piperidin-3-yl)-5-phenethylimidazo[1,5-a]pyrazin-1-yl)-N-(4-(trifluoromethyl)pyridin-2-yl)benzamide]
2 | < 10 | – | CCC(=O)N1C[C@H](c2nc(-c3ccc(C(=O)Nc4ccccn4)cc3)c3c(N)nccn23)CC[C@@H]1C (relative stereo) [Example 207, 4-(8-amino-3-((cis)-6-methyl-1-propionylpiperidin-3-yl)imidazo[1,5-a]pyrazin-1-yl)-N-(pyridin-2-yl)benzamide, TFA salt]
3 | < 10 | – | CCC(=O)C(=O)N1C[C@H](c2nc(-c3ccc(C(=O)Nc4cc(C(F)(F)F)ccn4)cc3)c3c(N)nccn23)CC[C@@H]1C (relative stereo) [Example 200, 4-(8-amino-3-((cis)-6-methyl-1-(2-oxobutanoyl)piperidin-3-yl)imidazo[1,5-a]pyrazin-1-yl)-N-(4-(trifluoromethyl)-pyridin-2-yl)benzamide, TFA salt]
4 | – | 10 to 100 | Nc1nccn2c([C@@H]3CCC[C@H](NC(=O)OCc4ccccc4)C3)nc(-c3ccc(C(=O)Nc4cc(C(F)(F)F)ccn4)cc3)c12 (relative stereo) [Example 154, benzyl (cis)-3-(8-amino-1-(4-(4-(trifluoromethyl)pyridin-2-ylcarbamoyl)phenyl)imidazo [1,5-a]pyrazin-3-yl)cyclohexylcarbamate]
5 | – | 10 to 100 | Nc1nccn2c([C@@H]3CCCN(CC4CCCC4)C3)nc(-c3ccc(C(=O)Nc4cc(C5CC5)ccn4)cc3)c12 [Example 143, (R)-4-(8-amino-3-(1-(cyclopentylmethyl)piperidin-3-yl)imidazo[1,5-a]pyrazin-1-yl)-N-(4-cyclopropylpyridin-2-yl)benzamide, TFA salt]
6 | – | 10 to 100 | COc1cccc(-c2cnc(N)c3c(-c4ccc(C(=O)Nc5cc(C(F)(F)F)ccn5)cc4)nc([C@@H]4CCCN(C(=O)C5(C)COC5)C4)n23)c1 [Example 320, (R)-4-(8-amino-5-(3-methoxyphenyl)-3-(1-(3-methyloxetane-3-carbonyl)piperidin-3-yl)imidazo[1,5-a]pyrazin-1-yl)-N-(4-(trifluoromethyl)pyridin-2-yl)benzamide]
7 | < 10 | – | N#Cc1csc(C(=O)N2CCC[C@@H](c3nc(-c4ccc(C(=O)Nc5cc(C6CC6)ccn5)cc4)c4c(N)nccn34)C2)c1 [Example 118, (R)-4-(8-amino-3-(1-(4-cyanothiophene-2-carbonyl)piperidin-3 yl)imidazo[1,5-a]pyrazin-1-yl)-N-(4-cyclopropylpyridin-2-yl)benzamide]
8 | < 10 | – | Nc1nccn2c([C@@H]3CCCN(C(=O)Nc4ccccc4Cl)C3)nc(-c3ccc(C(=O)Nc4cc(C5CC5)ccn4)cc3)c12 [Example 120, (R)-3-(8-amino-1-(4-(4-cyclopropylpyridin-2-ylcarbamoyl)phenyl)imidazo [1,5-a]pyrazin-3-yl)-N-(2-chlorophenyl)piperidine-1-carboxamide]
9 | – | 10 to 100 | CO[C@@H](C)C(=O)N1CCC[C@@H](c2nc(-c3ccc(C(=O)Nc4ccccn4)cc3)c3c(N)nccn23)C1 [Example 57, 4-(8-amino-3-((R)-1-((S)-2-methoxypropanoyl)piperidin-3-yl)imidazo[1,5-a]pyrazin-1-yl)-N-(pyridin-2-yl)benzamide]
10 | < 10 | – | CCOCCC(=O)N1CCC[C@@H](n2nc(-c3ccc(C(=O)Nc4cc(C(F)(F)F)ccn4)cc3)c3c(N)ncnc32)C1 [Example 281, (R)-4-(4-amino-1-(1-(3-ethoxypropanoyl)piperidin-3-yl)-1H-pyrazolo[3,4-d]pyrimidin-3-yl)-N-(4-(trifluoromethyl)pyridin-2-yl)benzamide]
11 | – | 100 to 1000 | CS(=O)(=O)N1CCC[C@@H](c2nc(-c3ccc(C(=O)Nc4ccccn4)cc3)c3c(N)nccn23)C1 [Example 49, (R)-4-(8-amino-3-(1-(methylsulfonyl)piperidin-3-yl)imidazo[1,5-a]pyrazin-1-yl)-N-(pyridin-2-yl)benzamide]
12 | < 10 | – | CCc1cnc(NC(=O)c2ccc(-c3nc([C@H]4CC[C@H](O)CC4)n4ccnc(N)c34)cc2)s1 [Example 4, 4-(8-amino-3-((trans)-4-hydroxycyclohexyl)imidazo[1,5-a]pyrazin-1-yl)-N-(5-ethylthiazol-2-yl)benzamide]
13 | – | 10 to 100 | CN(C)CCCC(=O)N1CCC[C@@H](c2nc(-c3ccc(C(=O)Nc4ccccn4)cc3)c3c(N)nccn23)C1 [Example 51, (R)-4-(8-amino-3-(1-(4-(dimethylamino)butanoyl)piperi-din-3-yl)imidazo[1,5-a]pyrazin-1-yl)-N-(pyridin-2-yl)benzamide]
14 | < 10 | – | CONC(=O)C1CCCN(c2nc(-c3ccc(C(=O)Nc4cc(C5CC5)ccn4)cc3)c3c(N)nccn23)C1 (stereo not shown) [Example 244, 1-(8-amino-1-(4-(4-cyclopropylpyridin-2-ylcarbamoyl)phenyl)imidazo[1,5-a]pyrazin-3-yl)-N-methoxypiperidine-3-carboxamide, TFA salt]
15 | – | 10 to 100 | CN(C)C1(C(=O)N2CCC[C@@H](c3nc(-c4ccc(C(=O)Nc5cc(C(F)(F)F)ccn5)cc4)c4c(N)nccn34)C2)CC1 [Example 88, (R)-4-(8-amino-3-(1-(1-(dimethylamino)cyclopropane-carbonyl)piperidin-3 yl)imidazo[1,5-a]pyrazin-1-yl)-N-(4-(trifluoromethyl)pyridin-2-yl)benzamide]
16 | – | 10 to 100 | CC1(C(=O)N2CCC[C@@H](c3nc(-c4ccc(C(=O)Nc5cc(C(F)(F)F)ccn5)cc4)c4c(N)ncc(C5CC5)n34)C2)COC1 [Example 303, (R)-4-(8-amino-5-cyclopropyl-3-(1-(3-methyloxetane-3-carbonyl)piperidin-3-yl)imidazo[1,5-a]pyrazin-1-yl)-N-(4-(trifluoromethyl)pyridin-2-yl)benzamide]
17 | < 10 | – | C[C@H]1CC[C@@H](c2nc(-c3ccc(C(=O)Nc4cc(C(F)(F)F)ccn4)cc3)c3c(N)nccn23)CN1C(=O)C1CCC1(F)F (relative stereo) [Example 190, 4-(8-amino-3-((cis)-1-(2,2-difluorocyclobutanecarbonyl)-6-methylpiperidin-3-yl)imidazo[1,5-a]pyrazin-1-yl)-N-(4-(trifluoromethyl)pyridin-2-yl)benzamide, TFA salt]
18 | < 10 | – | CC(C)C(=O)N1CCC[C@@H](c2nc(-c3ccc(C(=O)Nc4cc(C#N)ccn4)cc3)c3c(N)nccn23)C1 [Example 100, (R)-4-(8-amino-3-(1-isobutyrylpiperidin-3 yl)imidazo[1,5-a]pyrazin-1-yl)-N-(4-cyanopyridin-2-yl)benzamide]
19 | < 10 | – | Nc1ncnc2c1c(-c1ccc(C(=O)Nc3cc(C(F)(F)F)ccn3)cc1)nn2[C@@H]1CCCN(C(=O)C2CC(F)(F)C2)C1 [Example 278, (R)-4-(4-amino-1-(1-(3,3-difluorocyclobutanecarbonyl)piperidin-3-yl)-1H-pyrazolo[3,4-d]pyrimidin-3-yl)-N-(4-(trifluoromethyl)pyridin-2-yl)benzamide]
20 | < 10 | – | CCCc1ccnc(NC(=O)c2ccc(-c3nc(N4CCC4)n4ccnc(N)c34)cc2)c1 [Example 208, 4-(8-amino-3-(azetidin-1-yl)imidazo[1,5-a]pyrazin-1-yl)-N-(4-propylpyridin-2-yl)benzamide]
21 | < 10 | – | CCOCCC(=O)N1CCC[C@@H](c2nc(-c3ccc(C(=O)Nc4cc(C(F)(F)F)ccn4)cc3)c3c(N)ncnn23)C1 [Example 259, (R)-4-(4-amino-7-(1-(3-ethoxypropanoyl)piperidin-3-yl)imidazo[1,5-f][1,2,4]triazin-5-yl)-N-(4-(trifluoromethyl)pyridin-2-yl)benzamide]
22 | < 10 | – | CC(CO)(CO)C(=O)N1CCC[C@@H](c2nc(-c3ccc(C(=O)Nc4cc(C(F)(F)F)ccn4)cc3)c3c(N)nccn23)C1 [Example 105, (R)-4-(8-amino-3-(1-(3-hydroxy-2-(hydroxymethyl)-2-methylpropanoyl)piperidin-3 yl)imidazo[1,5-a]pyrazin-1-yl)-N-(4-(trifluoromethyl)pyridin-2-yl)benzamide]
23 | – | 10 to 100 | NCCCCC(=O)N1CCC[C@@H](c2nc(-c3ccc(C(=O)Nc4ccccn4)cc3)c3c(N)nccn23)C1 [Example 54, (R)-4-(8-amino-3-(1-(5-aminopentanoyl)piperidin-3-yl)imidazo[1,5-a]pyrazin-1-yl)-N-(pyridin-2-yl)benzamide]
24 | < 10 | – | Nc1ncc(Cl)n2c(C3CN(C(=O)C4(O)CCC4)CCO3)nc(-c3ccc(C(=O)Nc4cc(C(F)(F)F)ccn4)cc3)c12 (stereo not shown) [Example 316, 4-(8-amino-5-chloro-3-(4-(1-hydroxycyclobutanecarbonyl)morpholin-2-yl)imidazo[1,5-a]pyrazin-1-yl)-N-(4-(trifluoromethyl)pyridin-2-yl)benzamide]
25 | – | 10 to 100 | CN(C)C(=O)C(=O)N1CCC[C@@H](c2nc(-c3ccc(C(=O)Nc4cc(C5CC5)ccn4)cc3)c3c(N)nccn23)C1 [Example 111, (R)-4-(8-amino-3-(1-(2-(dimethylamino)-2-oxoacetyl)piperidin-3-yl)imidazo[1,5-a]pyrazin-1-yl)-N-(4-cyclopropylpyridin-2-yl)benzamide]
26 | – | 10 to 100 | N#Cc1ccnc(NC(=O)c2ccc(-c3nc(C4CCOCC4)n4ccnc(N)c34)cc2)c1 [Example 26, 4-(8-amino-3-(tetrahydro-2H-pyran-4-yl)imidazo [1,5-a]pyrazin-1-yl)-N-(4-cyanopyridin-2-yl)benzamide]
27 | – | 10 to 100 | CC(C)(C#N)C(=O)N1CCC[C@@H](c2nc(-c3ccc(C(=O)Nc4ccccn4)cc3)c3c(N)nccn23)C1 [Example 108, (R)-4-(8-amino-3-(1-(2-cyano-2-methylpropanoyl)piperidin-3-yl)imidazo[1,5-a]pyrazin-1-yl)-N-(pyridin-2-yl)benzamide]
28 | – | 100 to 1000 | COCCCNC(=O)c1cnc(N)c2c(-c3ccc(C(=O)Nc4cc(C(F)(F)F)ccn4)cc3)nc(C)n12 [Example 291, 8-amino-N-(3-methoxypropyl)-3-methyl-1-(4-(4-(trifluoromethyl)pyridin-2-ylcarbamoyl)phenyl)imidazo[1,5-a]pyrazine-5-carboxamide]
